# Assay results taken from the OligoGym collection.
# Oligonucleotides are given in HELM: sugar(base)linkage, 5' to 3'; d 2'-deoxyribose, r ribose, m 2'-O-methylribose, p phosphate. ss, as = sense and antisense strand
# Target: CDC34
# Assay: reporter assay of Huesken 2005
# Details: siRNA
# Further: test concentration or dose not given here.
row,Substance,normalised inhibition (eCFP-eYFP dual reporter) [%]
1,RNA1{r(C)p.r(A)p.r(G)p.r(G)p.r(U)p.r(C)p.r(C)p.r(U)p.r(G)p.r(G)p.r(G)p.r(G)p.r(A)p.r(C)p.r(C)p.r(A)p.r(A)p.r(G)p.r(G)p.d(T)p.d(T)}|RNA2{r(C)p.r(C)p.r(U)p.r(U)p.r(G)p.r(G)p.r(U)p.r(C)p.r(C)p.r(C)p.r(C)p.r(A)p.r(G)p.r(G)p.r(A)p.r(C)p.r(C)p.r(U)p.r(G)p.d(C)p.d(T)}$$$RNA1{StrandType:ss}|RNA2{StrandType:as}$,43
2,RNA1{r(C)p.r(C)p.r(A)p.r(C)p.r(C)p.r(C)p.r(G)p.r(C)p.r(C)p.r(G)p.r(G)p.r(U)p.r(G)p.r(G)p.r(A)p.r(C)p.r(G)p.r(A)p.r(C)p.d(T)p.d(T)}|RNA2{r(G)p.r(U)p.r(C)p.r(G)p.r(U)p.r(C)p.r(C)p.r(A)p.r(C)p.r(C)p.r(G)p.r(G)p.r(C)p.r(G)p.r(G)p.r(G)p.r(U)p.r(G)p.r(G)p.d(A)p.d(G)}$$$RNA1{StrandType:ss}|RNA2{StrandType:as}$,44.2
3,RNA1{r(C)p.r(C)p.r(C)p.r(A)p.r(A)p.r(C)p.r(A)p.r(C)p.r(C)p.r(U)p.r(U)p.r(C)p.r(U)p.r(C)p.r(G)p.r(C)p.r(C)p.r(C)p.r(G)p.d(T)p.d(T)}|RNA2{r(C)p.r(G)p.r(G)p.r(G)p.r(C)p.r(G)p.r(A)p.r(G)p.r(A)p.r(A)p.r(G)p.r(G)p.r(U)p.r(G)p.r(U)p.r(U)p.r(G)p.r(G)p.r(G)p.d(C)p.d(T)}$$$RNA1{StrandType:ss}|RNA2{StrandType:as}$,45.9
4,RNA1{r(C)p.r(C)p.r(C)p.r(C)p.r(A)p.r(U)p.r(C)p.r(G)p.r(A)p.r(C)p.r(U)p.r(A)p.r(C)p.r(C)p.r(C)p.r(A)p.r(U)p.r(A)p.r(C)p.d(T)p.d(T)}|RNA2{r(G)p.r(U)p.r(A)p.r(U)p.r(G)p.r(G)p.r(G)p.r(U)p.r(A)p.r(G)p.r(U)p.r(C)p.r(G)p.r(A)p.r(U)p.r(G)p.r(G)p.r(G)p.r(G)p.d(A)p.d(A)}$$$RNA1{StrandType:ss}|RNA2{StrandType:as}$,44.9
5,RNA1{r(C)p.r(C)p.r(G)p.r(A)p.r(G)p.r(U)p.r(A)p.r(C)p.r(U)p.r(G)p.r(C)p.r(G)p.r(U)p.r(G)p.r(A)p.r(A)p.r(G)p.r(A)p.r(C)p.d(T)p.d(T)}|RNA2{r(G)p.r(U)p.r(C)p.r(U)p.r(U)p.r(C)p.r(A)p.r(C)p.r(G)p.r(C)p.r(A)p.r(G)p.r(U)p.r(A)p.r(C)p.r(U)p.r(C)p.r(G)p.r(G)p.d(C)p.d(C)}$$$RNA1{StrandType:ss}|RNA2{StrandType:as}$,59
6,RNA1{r(C)p.r(C)p.r(U)p.r(C)p.r(C)p.r(U)p.r(G)p.r(A)p.r(A)p.r(C)p.r(G)p.r(A)p.r(G)p.r(C)p.r(C)p.r(C)p.r(A)p.r(A)p.r(C)p.d(T)p.d(T)}|RNA2{r(G)p.r(U)p.r(U)p.r(G)p.r(G)p.r(G)p.r(C)p.r(U)p.r(C)p.r(G)p.r(U)p.r(U)p.r(C)p.r(A)p.r(G)p.r(G)p.r(A)p.r(G)p.r(G)p.d(G)p.d(A)}$$$RNA1{StrandType:ss}|RNA2{StrandType:as}$,68.2
7,RNA1{r(C)p.r(C)p.r(U)p.r(C)p.r(U)p.r(U)p.r(C)p.r(U)p.r(A)p.r(C)p.r(G)p.r(A)p.r(C)p.r(G)p.r(A)p.r(C)p.r(U)p.r(A)p.r(C)p.d(T)p.d(T)}|RNA2{r(G)p.r(U)p.r(A)p.r(G)p.r(U)p.r(C)p.r(G)p.r(U)p.r(C)p.r(G)p.r(U)p.r(A)p.r(G)p.r(A)p.r(A)p.r(G)p.r(A)p.r(G)p.r(G)p.d(T)p.d(C)}$$$RNA1{StrandType:ss}|RNA2{StrandType:as}$,82.7
8,RNA1{r(C)p.r(C)p.r(U)p.r(G)p.r(A)p.r(G)p.r(U)p.r(G)p.r(U)p.r(G)p.r(A)p.r(U)p.r(C)p.r(U)p.r(C)p.r(C)p.r(C)p.r(U)p.r(C)p.d(T)p.d(T)}|RNA2{r(G)p.r(A)p.r(G)p.r(G)p.r(G)p.r(A)p.r(G)p.r(A)p.r(U)p.r(C)p.r(A)p.r(C)p.r(A)p.r(C)p.r(U)p.r(C)p.r(A)p.r(G)p.r(G)p.d(A)p.d(G)}$$$RNA1{StrandType:ss}|RNA2{StrandType:as}$,58.4
9,RNA1{r(C)p.r(G)p.r(A)p.r(C)p.r(G)p.r(A)p.r(C)p.r(U)p.r(A)p.r(C)p.r(U)p.r(A)p.r(C)p.r(G)p.r(G)p.r(G)p.r(A)p.r(C)p.r(G)p.d(T)p.d(T)}|RNA2{r(C)p.r(G)p.r(U)p.r(C)p.r(C)p.r(C)p.r(G)p.r(U)p.r(A)p.r(G)p.r(U)p.r(A)p.r(G)p.r(U)p.r(C)p.r(G)p.r(U)p.r(C)p.r(G)p.d(T)p.d(A)}$$$RNA1{StrandType:ss}|RNA2{StrandType:as}$,62.7
10,RNA1{r(C)p.r(G)p.r(A)p.r(G)p.r(G)p.r(G)p.r(C)p.r(G)p.r(A)p.r(U)p.r(C)p.r(U)p.r(A)p.r(U)p.r(A)p.r(C)p.r(A)p.r(A)p.r(C)p.d(T)p.d(T)}|RNA2{r(G)p.r(U)p.r(U)p.r(G)p.r(U)p.r(A)p.r(U)p.r(A)p.r(G)p.r(A)p.r(U)p.r(C)p.r(G)p.r(C)p.r(C)p.r(C)p.r(U)p.r(C)p.r(G)p.d(T)p.d(C)}$$$RNA1{StrandType:ss}|RNA2{StrandType:as}$,72.7
11,RNA1{r(C)p.r(G)p.r(C)p.r(C)p.r(U)p.r(C)p.r(C)p.r(G)p.r(U)p.r(G)p.r(A)p.r(U)p.r(G)p.r(U)p.r(A)p.r(C)p.r(A)p.r(G)p.r(G)p.d(T)p.d(T)}|RNA2{r(C)p.r(C)p.r(U)p.r(G)p.r(U)p.r(A)p.r(C)p.r(A)p.r(U)p.r(C)p.r(A)p.r(C)p.r(G)p.r(G)p.r(A)p.r(G)p.r(G)p.r(C)p.r(G)p.d(T)p.d(C)}$$$RNA1{StrandType:ss}|RNA2{StrandType:as}$,36.4
12,RNA1{r(C)p.r(G)p.r(C)p.r(G)p.r(C)p.r(C)p.r(U)p.r(C)p.r(A)p.r(A)p.r(G)p.r(U)p.r(U)p.r(C)p.r(C)p.r(C)p.r(C)p.r(A)p.r(U)p.d(T)p.d(T)}|RNA2{r(A)p.r(U)p.r(G)p.r(G)p.r(G)p.r(G)p.r(A)p.r(A)p.r(C)p.r(U)p.r(U)p.r(G)p.r(A)p.r(G)p.r(G)p.r(C)p.r(G)p.r(C)p.r(G)p.d(C)p.d(C)}$$$RNA1{StrandType:ss}|RNA2{StrandType:as}$,51.1
13,RNA1{r(C)p.r(G)p.r(C)p.r(G)p.r(U)p.r(G)p.r(A)p.r(C)p.r(A)p.r(C)p.r(U)p.r(G)p.r(G)p.r(U)p.r(G)p.r(G)p.r(A)p.r(C)p.r(G)p.d(T)p.d(T)}|RNA2{r(C)p.r(G)p.r(U)p.r(C)p.r(C)p.r(A)p.r(C)p.r(C)p.r(A)p.r(G)p.r(U)p.r(G)p.r(U)p.r(C)p.r(A)p.r(C)p.r(G)p.r(C)p.r(G)p.d(G)p.d(A)}$$$RNA1{StrandType:ss}|RNA2{StrandType:as}$,67.3
14,RNA1{r(C)p.r(G)p.r(U)p.r(C)p.r(A)p.r(G)p.r(G)p.r(A)p.r(C)p.r(C)p.r(A)p.r(U)p.r(U)p.r(C)p.r(U)p.r(C)p.r(C)p.r(U)p.r(G)p.d(T)p.d(T)}|RNA2{r(C)p.r(A)p.r(G)p.r(G)p.r(A)p.r(G)p.r(A)p.r(A)p.r(U)p.r(G)p.r(G)p.r(U)p.r(C)p.r(C)p.r(U)p.r(G)p.r(A)p.r(C)p.r(G)p.d(T)p.d(T)}$$$RNA1{StrandType:ss}|RNA2{StrandType:as}$,72.1
15,RNA1{r(C)p.r(G)p.r(U)p.r(G)p.r(G)p.r(A)p.r(C)p.r(G)p.r(C)p.r(C)p.r(U)p.r(C)p.r(C)p.r(G)p.r(U)p.r(G)p.r(A)p.r(U)p.r(G)p.d(T)p.d(T)}|RNA2{r(C)p.r(A)p.r(U)p.r(C)p.r(A)p.r(C)p.r(G)p.r(G)p.r(A)p.r(G)p.r(G)p.r(C)p.r(G)p.r(U)p.r(C)p.r(C)p.r(A)p.r(C)p.r(G)p.d(T)p.d(T)}$$$RNA1{StrandType:ss}|RNA2{StrandType:as}$,79.4
16,RNA1{r(C)p.r(U)p.r(A)p.r(C)p.r(G)p.r(A)p.r(C)p.r(G)p.r(A)p.r(C)p.r(U)p.r(A)p.r(C)p.r(U)p.r(A)p.r(C)p.r(G)p.r(G)p.r(G)p.d(T)p.d(T)}|RNA2{r(C)p.r(C)p.r(C)p.r(G)p.r(U)p.r(A)p.r(G)p.r(U)p.r(A)p.r(G)p.r(U)p.r(C)p.r(G)p.r(U)p.r(C)p.r(G)p.r(U)p.r(A)p.r(G)p.d(A)p.d(A)}$$$RNA1{StrandType:ss}|RNA2{StrandType:as}$,69
17,RNA1{r(C)p.r(U)p.r(A)p.r(C)p.r(G)p.r(A)p.r(G)p.r(G)p.r(G)p.r(C)p.r(G)p.r(G)p.r(C)p.r(U)p.r(A)p.r(C)p.r(U)p.r(U)p.r(C)p.d(T)p.d(T)}|RNA2{r(G)p.r(A)p.r(A)p.r(G)p.r(U)p.r(A)p.r(G)p.r(C)p.r(C)p.r(G)p.r(C)p.r(C)p.r(C)p.r(U)p.r(C)p.r(G)p.r(U)p.r(A)p.r(G)p.d(T)p.d(A)}$$$RNA1{StrandType:ss}|RNA2{StrandType:as}$,59.8
18,RNA1{r(C)p.r(U)p.r(C)p.r(A)p.r(G)p.r(A)p.r(C)p.r(C)p.r(U)p.r(C)p.r(U)p.r(U)p.r(C)p.r(U)p.r(A)p.r(C)p.r(G)p.r(A)p.r(C)p.d(T)p.d(T)}|RNA2{r(G)p.r(U)p.r(C)p.r(G)p.r(U)p.r(A)p.r(G)p.r(A)p.r(A)p.r(G)p.r(A)p.r(G)p.r(G)p.r(U)p.r(C)p.r(U)p.r(G)p.r(A)p.r(G)p.d(C)p.d(C)}$$$RNA1{StrandType:ss}|RNA2{StrandType:as}$,37.2
19,RNA1{r(C)p.r(U)p.r(C)p.r(C)p.r(U)p.r(G)p.r(A)p.r(G)p.r(U)p.r(G)p.r(U)p.r(G)p.r(A)p.r(U)p.r(C)p.r(U)p.r(C)p.r(C)p.r(C)p.d(T)p.d(T)}|RNA2{r(G)p.r(G)p.r(G)p.r(A)p.r(G)p.r(A)p.r(U)p.r(C)p.r(A)p.r(C)p.r(A)p.r(C)p.r(U)p.r(C)p.r(A)p.r(G)p.r(G)p.r(A)p.r(G)p.d(A)p.d(A)}$$$RNA1{StrandType:ss}|RNA2{StrandType:as}$,42.3
20,RNA1{r(C)p.r(U)p.r(G)p.r(A)p.r(G)p.r(U)p.r(G)p.r(U)p.r(G)p.r(A)p.r(U)p.r(C)p.r(U)p.r(C)p.r(C)p.r(C)p.r(U)p.r(C)p.r(C)p.d(T)p.d(T)}|RNA2{r(G)p.r(G)p.r(A)p.r(G)p.r(G)p.r(G)p.r(A)p.r(G)p.r(A)p.r(U)p.r(C)p.r(A)p.r(C)p.r(A)p.r(C)p.r(U)p.r(C)p.r(A)p.r(G)p.d(G)p.d(A)}$$$RNA1{StrandType:ss}|RNA2{StrandType:as}$,23.2
